Like-named read-outs stand apart in the source and are kept apart here.
How the values were obtained:
[1] = Human hepatocyte clearance study; type: in vitro ADME; settings: human, pooled cryopreserved human hepatocytes (suspension); for hepatocyte CLint at 1 µM: read-out: Human In vitro Clint (μl/min/10^6 cells); for half-life at 1 µM: read-out: Human In vitro T1/2; for CLint scaled at 1 µM: read-out: Human Scale-up Clint
Method: (§1) The in vitro human hepatocyte clearance of compounds described here was studied using pooled human hepatocytes purchased from BioreclamationIVT (Westbury, NY, Cat #X008001, Lot #TQJ). The assay was conducted according to manufacturer's instruction. Briefly, 10 mM stock solutions of test compounds and positive control (Verapamil) were prepared in 100% DMSO. Thawing media (50 mL) used in the study consists of 31 mL Williams E medium (GIBCO Cat #12551-032), 15 mL isotonic percoll (GE Healthcare Cat #17-0891-09), 500 uL 100× GlutaMax (GIBCO Cat #35050), 750 uL HEPES (GIBCO Cat #15630-080), 2.5 mL FBS (Corning Cat #35-076-CVR), 50 uL human insulin (GIBCO Cat #12585-014) and 5 uL dexamethasone (NICPBP). Incubation media is made of Williams E medium supplemented with 1× GlutaMax. Both thawing medium and incubation medium (serum-free) were placed in a 37° C. water bath for at least 15 minutes prior to use. Compound stock solutions were diluted to 100 μM by combining 198 μL of 50% acetonitrile/50% water and 2 μL of 10 mM stock solution. Verapamil was use as positive control in the assay. Vials of cryopreserved hepatocytes were removed from storage and thawed in a 37° C. water bath with gentle shaking. Contents of the vial were poured into the 50 mL thawing medium conical tube. Vials were centrifuged at 100 g for 10 minutes at room temperature. […] […] […] The boiled hepatocytes were used to prepare negative samples. Aliquots of 198 μL hepatocytes were dispensed into each well of a 96-well non-coated plate. The plate was placed in the incubator on an orbital shaker at 500 rpm for approximately 10 minutes. Aliquots of 2 μL of the 100 μM test compound or positive control were added into respective wells of the non-coated 96-well plate to start the reaction. This assay was performed in duplicate. The plate was incubated in the incubator on an orbital shaker at 500 rpm for the designated time points. Twenty-five microliter of contents were transferred and mixed with 6 volumes (150 μL) of cold acetonitrile with IS (200 nM imipramine, 200 nM labetalol and 200 nM diclofenac) to terminate the reaction at time points of 0, 15, 30, 60, 90 and 120 minutes. Samples were centrifuged at 3,220 g for 25 minutes and aliquots of 150 μL of the supernatants were used for LC-MS/MS analysis. For data analysis, all calculations were carried out using Microsoft Excel. Peak areas were determined from extracted ion chromatograms. The in vitro half-life (t1/2) of parent compound was determined by regression analysis of the percent parent disappearance vs. time curve. […] Scaling factors for in vivo intrinsic clearance prediction using human hepatocytes are listed as: liver weight (g liver/kg body weight): 25.7; hepatocyte concentration (10^6 cells/g liver): 99; scaling factor: 2544.3.

pooled human hepatocytes = test: Human hepatocyte clearance study; type: in vitro ADME
Method: as §1

[2] = system: Lung cancer cell line NCI-H358 containing KRas G12C mutation; test: Assay for cell proliferation (Cell-titer Glo, 5 days); type: cell-based, human; settings: Homo sapiens, NCI-H358, 120 h, NCI-H358, 5 days, Cell-titer Glo; read-out: IC50 (nM), Inhibition of NCI-H358 Cell Proliferation
Outline: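 NCI-H358 (KRas G12C) cells, 2000 per well, attached overnight at 37 °C, 5% CO2, then treated with compound for 5 days at 0.5% DMSO final. Proliferation measured by CellTiter-Glo luminescence after 10 min at RT.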

NCI-H358 xenograft = test: NSCLC H358 xenograft model, tumor volume; type: in vivo, BALB/c nude mice; settings: Compound 145 at 5 mg/kg combined with carboplatin at 30 mg/kg; FIG. 4
Method: All the procedures related to animal handling, care and the treatment in this study were performed according to the guidelines approved by the Institutional Animal Care and Use Committee (IACUC) of SIPPER B&K following the guidance of the Association for Assessment and Accreditation of Laboratory Animal Care (AAALAC). At the time of routine monitoring, the animals were checked for any effects of tumor growth on normal behavior such as mobility, food and water consumption (by looking only), body weight gain/loss (body weights were measured twice weekly), eye/hair matting and any other abnormal effect. Death and observed clinical signs were recorded on the basis of the numbers of animals within each subset.
The NCI-H358, SW837, NCI-H2122 tumor cells were purchased from the American Type Culture Collection (ATCC). Cells were maintained in vitro as monolayer cultured in RPMI-1640 or DMEM medium supplemented with 10% fetal bovine serum, 50 IU/ml penicillin/streptomycin (GIBCO) at 37° C. in an atmosphere of 5% CO2 in air. The tumor cells were routinely sub cultured twice weekly by trypsin-EDTA treatment. The cells growing in an exponential growth phase were harvested and counted for tumor inoculation.
For tumor bearing models, female 6- to 8-week-old athymic BALB/c nude mice were used for human cancer cell lines. Each mouse was inoculated subcutaneously at the right flank with tumor cells (10×10^6) in 0.1 ml of PBS. The treatments were started when the average tumor size reached approximately 200-250 mm^3. Carboplatin, Cisplatin was injected twice a week by i.p. Vehicles and other test articles were given orally as a suspension by gavage once daily during the study or treatment period.
Tumor volume was calculated by measuring two perpendicular diameters using the following formula: (L×W 2)/2 in which L and W refer to the length and width tumor diameter, respectively. Results are expressed as mean and standard deviation of the mean.

[3] = working cell density 2 × 10^6 viable cells/mL
[4] = working cell density 0.5 × 10^6 viable cells/mL
[5] = working cell density 0.5 × 10^6 viable cells/mL, scaling factor 2544.3

IC50 [2]	SMILES	hepatocyte CLint at 1 µM [1, 3]	half-life at 1 µM [1, 3]	CLint scaled at 1 µM [1, 3]	Human Hepatocyte Remaining Percentage @ 120 min (%) (pooled human hepatocytes; [3])	reduction of tumor volume, combined treatment vs either agent alone (NCI-H358 xenograft)	hepatocyte CLint at 1 µM [1, 4]	half-life at 1 µM [1, 4]	CLint scaled at 1 µM [1, 5]	Human Hepatocyte Remaining Percentage @ 120 min (%) (pooled human hepatocytes; [4])
7.6 nM	C=CC(=O)N1CCN(c2nc(=O)n(-c3c(C(C)C)nc(OCCN(C)C)nc3C(C)C)c3nc(-c4c(O)cccc4F)c(Cl)cc23)[C@@H](C)C1 [Compound 22]						2.9 µL/min/1e6 cells	7.87 h	7.5 mL/min/kg	83.3%
6.9 nM	C=CC(=O)N1CCN(c2nc(=O)n(-c3c(C(C)C)nc(OCCN(C)C)nc3C(C)C)c3nc(-c4c(N)cccc4F)c(Cl)cc23)[C@@H](C)C1 [Compound 23]						2.5 µL/min/1e6 cells	9.23 h	6.4 mL/min/kg	82.4%
23.3 nM	C=CC(=O)N1CCN(c2nc(=O)n(-c3c(C4CC4)nc(C)nc3C3CC3)c3nc(-c4c(O)cccc4F)c(F)cc23)[C@@H](C)C1 [Compound 28]						8.4 µL/min/1e6 cells	2.73 h	21.5 mL/min/kg	61.1%
11.4 nM	C=CC(=O)N1CCN(c2nc(=O)n(-c3c(C4CC4)nc(C)nc3C3CC3)c3nc(-c4c(N)cccc4F)c(F)cc23)[C@@H](C)C1 [Compound 29]						8.5 µL/min/1e6 cells	2.72 h	21.7 mL/min/kg	60.8%
3.5 nM	C=CC(=O)N1C[C@H](C)N(c2nc(=O)n(-c3c(C4CC4)ncnc3C3CC3)c3nc(-c4c(O)cccc4F)c(Cl)cc23)C[C@H]1C [Compound 127]	4.4 µL/min/1e6 cells	2.64 h	11.1 mL/min/kg	55.5%					

Further lines, the compound ahead of its results:

SMILES	IC50 [2]	hepatocyte CLint at 1 µM [1, 3]	half-life at 1 µM [1, 3]	CLint scaled at 1 µM [1, 3]	Human Hepatocyte Remaining Percentage @ 120 min (%) (pooled human hepatocytes; [3])	reduction of tumor volume, combined treatment vs either agent alone (NCI-H358 xenograft)	hepatocyte CLint at 1 µM [1, 4]	half-life at 1 µM [1, 4]	CLint scaled at 1 µM [1, 5]	Human Hepatocyte Remaining Percentage @ 120 min (%) (pooled human hepatocytes; [4])
C=CC(=O)N1C[C@H](C)N(c2nc(=O)n(-c3c(F)cc4c(ncn4C)c3C(C)C)c3nc(-c4c(N)cccc4F)c(F)cc23)C[C@H]1C (atropisomer, axis not shown) [Compound 145]	1.4 nM	1 µL/min/1e6 cells	11.5 h	2.6 mL/min/kg	82.9%	much better reduction of tumor volume				
C=CC(=O)N1CCN(c2nc(=O)n(-c3c(C4CC4)nc(OCCN(C)C)nc3C3CC3)c3nc(-c4ccccc4F)c(F)cc23)[C@@H](C)C1 [Compound 21]	29.9 nM						1.8 µL/min/1e6 cells	13.1 h	4.5 mL/min/kg	90.6%
C=CC(=O)N1C[C@H](C)N(c2nc(=O)n(-c3c(C(C)C)nc(OCCN(C)C)nc3C(C)C)c3nc(-c4ccccc4F)c(Cl)cc23)C[C@H]1C [Compound 24]	9.1 nM						5.9 µL/min/1e6 cells	3.9 h	15.1 mL/min/kg	70.1%
C=CC(=O)N1CCN(c2nc(=O)n(-c3c(C4CC4)ncnc3C3CC3)c3nc(-c4c(O)cccc4F)c(F)cc23)[C@@H](C)C1 [Compound 40]	7.5 nM	12.7 µL/min/1e6 cells	0.91 h	32.3 mL/min/kg	20.7%					
C=CC(=O)N1CCN(c2nc(=O)n(-c3c(C4CC4)ncnc3C3CC3)c3nc(-c4c(N)cccc4F)c(F)cc23)[C@@H](C)C1 [Compound 41]	6.9 nM	8.2 µL/min/1e6 cells	1.41 h	20.9 mL/min/kg	38.9%					
C=CC(=O)N1C[C@H](C)N(c2nc(=O)n(-c3c(C4CC4)nc(C)nc3C3CC3)c3nc(-c4c(O)cccc4F)c(F)cc23)C[C@H]1C [Compound 52]	22.8 nM						7.3 µL/min/1e6 cells	3.17 h	18.5 mL/min/kg	65.3%
C=CC(=O)N1CCN(c2nc(=O)n(-c3ccc4c(ncn4C)c3C(C)C)c3nc(-c4ccccc4F)c(Cl)cc23)[C@@H](C)C1 [Compound 72]	13.1 nM						13.3 µL/min/1e6 cells	1.73 h	34 mL/min/kg	41.2%
C=CC(=O)N1CCN(c2nc(=O)n(-c3c(C4CC4)ncnc3C3CC3)c3nc(-c4c(N)cccc4F)c(Cl)cc23)[C@@H](C)C1 [Compound 124]	2.4 nM	8.5 µL/min/1e6 cells	1.35 h	21.7 mL/min/kg	37.5%					
C=CC(=O)N1CCN(c2nc(=O)n(-c3c(C4CC4)ncnc3C3CC3)c3nc(-c4c(O)cccc4F)c(Cl)cc23)[C@@H](C)C1 [Compound 125]	6.1 nM	14.5 µL/min/1e6 cells	0.8 h	36.8 mL/min/kg	16.5%					
C=CC(=O)N1C[C@H](C)N(c2nc(=O)n(-c3c(C4CC4)ncnc3C3CC3)c3nc(-c4ccccc4F)c(Cl)cc23)C[C@H]1C [Compound 128]	8.7 nM	10.3 µL/min/1e6 cells	1.12 h	26.1 mL/min/kg	39.9%					
